Data reported in publication PMC8467848 (Molecules, 2021).
Structures can show the parent of a compound that is named as a salt. One block for each compound: values may come before it.

Experiments:
κ-opioid receptor = biological target: T1, κ-opioid receptor (Mus musculus, UniProt P33534); assay: biochemical; format: binding
T1 construct: performed on mouse brain homogenates; from tissue; host or cells: mouse brain membranes / homogenates

δ-opioid receptor = biological target: T2, δ-opioid receptor (Mus musculus, UniProt P32300); assay: biochemical; format: binding
T2 construct: performed on mouse brain homogenates; from tissue; host or cells: mouse brain membranes / homogenates

μ-opioid receptor = biological target: T3, μ-opioid receptor (Mus musculus, UniProt P42866); assay: biochemical; format: binding
T3 construct: performed on mouse brain homogenates in the presence of ^3H-DAMGO for μ-receptor; from tissue; host or cells: mouse brain membranes / homogenates
T3 sequence (P42866 whole entry): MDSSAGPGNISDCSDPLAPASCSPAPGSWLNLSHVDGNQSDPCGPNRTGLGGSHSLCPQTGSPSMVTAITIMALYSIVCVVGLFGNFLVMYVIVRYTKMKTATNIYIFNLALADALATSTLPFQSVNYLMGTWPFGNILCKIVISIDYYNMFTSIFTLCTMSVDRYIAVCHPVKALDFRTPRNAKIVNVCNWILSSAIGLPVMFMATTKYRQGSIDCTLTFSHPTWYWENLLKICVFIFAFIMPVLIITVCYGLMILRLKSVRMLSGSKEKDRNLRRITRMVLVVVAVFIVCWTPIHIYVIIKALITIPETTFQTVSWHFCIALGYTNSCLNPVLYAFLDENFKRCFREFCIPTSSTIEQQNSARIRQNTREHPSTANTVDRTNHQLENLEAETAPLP

T2 sequence (P32300 whole entry): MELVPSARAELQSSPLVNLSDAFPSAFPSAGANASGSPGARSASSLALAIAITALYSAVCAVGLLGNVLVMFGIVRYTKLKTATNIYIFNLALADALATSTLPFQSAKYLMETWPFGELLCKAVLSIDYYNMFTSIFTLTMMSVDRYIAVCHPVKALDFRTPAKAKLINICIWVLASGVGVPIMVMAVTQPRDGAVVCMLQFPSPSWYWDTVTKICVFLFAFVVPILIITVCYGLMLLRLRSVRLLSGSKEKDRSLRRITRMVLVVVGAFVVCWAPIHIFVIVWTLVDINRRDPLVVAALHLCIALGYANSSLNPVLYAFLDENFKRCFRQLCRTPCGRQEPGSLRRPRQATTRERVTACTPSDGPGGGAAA
T1 sequence (P33534 whole entry): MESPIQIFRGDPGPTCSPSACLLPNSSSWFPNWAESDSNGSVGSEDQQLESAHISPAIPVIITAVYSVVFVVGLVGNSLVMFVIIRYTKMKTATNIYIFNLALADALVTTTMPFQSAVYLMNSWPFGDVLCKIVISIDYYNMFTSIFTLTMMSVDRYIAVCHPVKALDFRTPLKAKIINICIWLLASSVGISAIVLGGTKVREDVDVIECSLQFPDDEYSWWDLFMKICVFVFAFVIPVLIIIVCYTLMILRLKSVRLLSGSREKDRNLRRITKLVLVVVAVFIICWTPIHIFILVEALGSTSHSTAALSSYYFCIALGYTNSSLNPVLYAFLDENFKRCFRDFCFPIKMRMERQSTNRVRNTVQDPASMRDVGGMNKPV

SMILES: CCC(=O)N1C2CCC1C1CCC2N1CC=C1CCc2cc(F)ccc21 (as salt: hydrochloride)
melting point: 181 to 183 °C

SMILES: CCC(=O)N1C2CCC1C1CCC2N1CC=C1CCc2cc(Cl)ccc21 (as salt: hydrochloride)
melting point: 170 to 173 °C

SMILES: CCC(=O)N1C2CCC1C1CCC2N1CC=C1CCc2cc(Br)ccc21 (as salt: hydrochloride)
melting point: 167 to 170 °C

SMILES: CCC(=O)N1C2CCC1C1CCC2N1Cc1cc2ccccc2[nH]1 (as salt: hydrochloride) [Compound 53, 9-Propionyl-10-(1H-indol-2-ylmethyl)-9, 10-diazatricyclo[4.2.1.1^2.5]decane]
melting point: 106 °C

SMILES: CCC(=O)N1C2CCC3C1CCC2N3Cc1cc2ccccc2[nH]1 (as salt: hydrochloride) [Compound 54, 2-Propionyl-7-(1H-indol-2-ylmethyl)-2,7-diazatricyclo[4.4.0.0^3.8]decane]
melting point: 54 °C

SMILES: CCC(=O)N1C2CCC1C1CCC2N1Cc1cnc2ccccc2n1 (as salt: hydrochloride) [Compound 59, 9-Propionyl-10-(quinoxalyn-2-ylmethyl)-9,10-diazatricyclo[4.2.1.1^2,5]decane]
melting point: 128 °C

SMILES: CCC(=O)N1C2CCC1C1CCC2N1Cc1cc2ccccc2[nH]1 [Compound 53, 9-Propionyl-10-(1H-indol-2-ylmethyl)-9, 10-diazatricyclo[4.2.1.1^2.5]decane]
Ki (κ-opioid receptor): > 1000 nM | affinity towards κ-receptors in words (κ-opioid receptor): negligible affinity | Ki (δ-opioid receptor): > 1000 nM | affinity towards δ-receptors in words (δ-opioid receptor): negligible affinity | Ki (μ-opioid receptor): 22 ± 3 nM | μ-affinity / binding in words (μ-opioid receptor): nanomolar range

SMILES: CCC(=O)N1C2CCC3C1CCC2N3Cc1cc2ccccc2[nH]1 [Compound 54, 2-Propionyl-7-(1H-indol-2-ylmethyl)-2,7-diazatricyclo[4.4.0.0^3.8]decane]
Ki (κ-opioid receptor): > 1000 nM | Ki (δ-opioid receptor): > 1000 nM | Ki (μ-opioid receptor): 500 ± 45 nM | fold lower μ-affinity compared to its isomer (μ-opioid receptor): 23 fold

SMILES: CCC(=O)N1C2CCC3C1CCC2N3Cc1ccc2ccccc2n1 [Compound 58, 2-Propionyl-7-(quinolyn-2-ylmethyl)-2,7-diazatricyclo[4.2.0.0^3,8]decane]
Ki (κ-opioid receptor): > 1000 nM | Ki (δ-opioid receptor): > 1000 nM | Ki (μ-opioid receptor): 490 ± 46 nM

SMILES: CCC(=O)N1C2CCC1C1CCC2N1Cc1cnc2ccccc2n1 [Compound 59, 9-Propionyl-10-(quinoxalyn-2-ylmethyl)-9,10-diazatricyclo[4.2.1.1^2,5]decane]
Ki (κ-opioid receptor): > 1000 nM | Ki (δ-opioid receptor): > 1000 nM | Ki (μ-opioid receptor): > 1000 nM

Now from value to compound:

melting point: 132 to 134 °C
SMILES: CCC(=O)N1C2CCC1C1CCC2N1CC=C1CCc2ccccc21 (as salt: hydrochloride)

melting point: 167 to 170 °C
SMILES: CCC(=O)N1C2CCC3C1CCC2N3CC=C1CCc2ccccc21 (as salt: hydrochloride)

melting point: 179 to 181 °C
SMILES: CCC(=O)N1C2CCC3C1CCC2N3CC=C1CCc2cc(Cl)ccc21 (as salt: hydrochloride)

melting point: 177 to 179 °C
SMILES: CCC(=O)N1C2CCC3C1CCC2N3CC=C1CCc2cc(Br)ccc21 (as salt: hydrochloride)

melting point: 131 to 133 °C
SMILES: CCC(=O)N1C2CCC3C1CCC2N3CC=C1CCc2cc(F)ccc21 (as salt: hydrochloride) [Compound 25, 2-Propionyl-7-[(E)-1-(2-(5-fluoro-2,3-dihydro-1H-inden-1-ylidene)ethyl]-2,7-diazatricyclo[4.2.0.0^3,8]decane]
